This passage reports TGI and GI50 results from PubChem BioAssay (NCI).

Among the test systems are DLD-1 colon; DMS 114 small cell lung; KM20L2 colon; LXFL 529 NSCLC; XF 498 CNS; DU-145 prostate; HS 578T breast; MDA-MB-231 breast; NCI/ADR-RES ovarian.
Assay in all cases: DTP human tumour cell line panel, 48 h

Each structure is given as a SMILES string.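 Tested at 5 concentrations; 48 h exposure; 96-well plates; endpoints linearly interpolated, else capped at highest concentration. GI50 is the concentration that inhibits growth by half. TGI denotes the concentration required for complete inhibition of growth.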

`CCOc1ccccc1N=Nc1ccc2oc(=O)c(C(=O)Nc3cccc(C)c3)cc2c1`: the concentration for total growth inhibition (TGI) is more than 100 µM in the experiment with DLD-1 colon; 63.4 µM in the experiment with DMS 114 small cell lung; more than 100 µM in the experiment on KM20L2 colon; more than 100 µM with LXFL 529 NSCLC; more than 100 µM with XF 498 CNS.
Take `Cc1cc(Cl)ccc1N=C1NC(=O)C(CC(=O)Nc2ccc([N+](=O)[O-])cc2[N+](=O)[O-])S1` (centres undefined): the TGI with DLD-1 colon is more than 100 µM; with DMS 114 small cell lung, 49.9 µM; in the experiment with KM20L2 colon, more than 100 µM; in the experiment with LXFL 529 NSCLC, 47.5 µM; in the experiment on XF 498 CNS, 53.6 µM.
In the case of `Cc1cccc(NC(=O)/C(=N\NC(C)(C)C)C2NC(=S)NC2=O)c1C` (centres undefined), the total growth inhibition concentration (TGI) in the experiment with DLD-1 colon, with KM20L2 colon and in the experiment with LXFL 529 NSCLC was more than 100 µM throughout.
For `C=C1C(=O)O[C@@H]2/C=C(\C)CC/C=C(/COC(C)=O)C[C@@H](OC(C)=O)[C@@H]12`, the TGI in the experiment with DU-145 prostate was 19.2 µM; in the experiment on HS 578T breast, more than 70.2 µM; with MDA-MB-231 breast, 28.5 µM; in the experiment with NCI/ADR-RES ovarian it was 57.8 µM.
In the case of `CCC[CH2][Sn]1([CH2]CCC)[O]CC(CN2CCCC2)[O]1` (centres undefined), the GI50 is 16.1 µM in the experiment with DLD-1 colon, 13 µM in the experiment with DMS 114 small cell lung, 20.6 µM in the experiment with KM20L2 colon and 4.33 µM with LXFL 529 NSCLC. The TGI with DLD-1 colon came to 32.7 µM; in the experiment on DMS 114 small cell lung, 27 µM; with KM20L2 colon it was 52 µM; with LXFL 529 NSCLC, 15.3 µM.
With `Cc1cccc(NC(=O)C(=O)C(C(=O)c2ccc3ccccc3c2)C2OC(=O)c3ccccc32)c1C` (centres undefined), the TGI with DLD-1 colon was 28.9 µM; in the experiment with DMS 114 small cell lung, 35.2 µM; with KM20L2 colon, more than 100 µM; with LXFL 529 NSCLC it was 22.4 µM; in the experiment with XF 498 CNS it was 9.47 µM.
For `CC1(C)SCc2nc3ncccc3n21`, in that order: more than 100 µM, more than 100 µM, more than 100 µM, more than 100 µM and more than 100 µM.
As to `N=C1C(c2nc3ccccc3s2)=C(O)CN1c1cc(C(F)(F)F)ccc1Cl`, the GI50 is 25.8 µM in the experiment on DU-145 prostate, 35.7 µM with HS 578T breast, 12.1 µM in the experiment on MDA-MB-231 breast and 7.45 µM with NCI/ADR-RES ovarian. Besides, the TGI was more than 100 µM in the experiment on DU-145 prostate, more than 100 µM in the experiment on HS 578T breast, 95.7 µM in the experiment on MDA-MB-231 breast and 37.6 µM with NCI/ADR-RES ovarian.
Turning to `COc1cc(C(C)O)c[n+](CCc2c[nH]c3ccccc23)c1` (centres undefined), the TGI in the experiment with DLD-1 colon, in the experiment with DMS 114 small cell lung, with KM20L2 colon, with LXFL 529 NSCLC and in the experiment on XF 498 CNS was more than 100 µM throughout.
On to `COc1cc(-c2ccc3c(c2)NC(=O)/C3=C\c2ccc[nH]2)ccc1O`, for which the concentration for 50% growth inhibition (GI50) is 0.0193 µM in the experiment on DU-145 prostate, 0.026 µM in the experiment with HS 578T breast, 0.0409 µM with MDA-MB-231 breast and 0.0177 µM with NCI/ADR-RES ovarian. For the same compound, the TGI is more than 30.2 µM in the experiment on DU-145 prostate, more than 50 µM with HS 578T breast, more than 50 µM with MDA-MB-231 breast and more than 50 µM in the experiment on NCI/ADR-RES ovarian.
For the compound `COC1(OC)C2(Cl)C(Cl)=C(Cl)C1(Cl)C1C=CC=CC12` (centres undefined), the TGI with DLD-1 colon, in the experiment on DMS 114 small cell lung, with KM20L2 colon, in the experiment with LXFL 529 NSCLC and in the experiment with XF 498 CNS was more than 100 µM each time.
On to `O=C(N/N=C/c1ccc(Cl)cc1)c1ccc(C(F)(F)F)nc1Nc1cccc(C(F)(F)F)c1`, for which the GI50 is 2.33 µM in the experiment with DU-145 prostate, 2.98 µM in the experiment with HS 578T breast, 2.22 µM in the experiment on MDA-MB-231 breast and 1.96 µM with NCI/ADR-RES ovarian. Moreover, the TGI in the experiment with DU-145 prostate was determined as 10.8 µM; in the experiment with HS 578T breast, 10.2 µM; in the experiment with MDA-MB-231 breast, 8.83 µM; in the experiment on NCI/ADR-RES ovarian, 6.99 µM.
For `CN1c2ccc(Cl)cc2C(=O)NC1c1ccc([N+](=O)[O-])s1` (centres undefined), the TGI with DU-145 prostate amounted to 45.1 µM; in the experiment with HS 578T breast, 34.2 µM; in the experiment on MDA-MB-231 breast, 33.1 µM; with NCI/ADR-RES ovarian, 35.3 µM.
Take `NC(N)=N/N=C(\c1nc2ccc([N+](=O)[O-])cc2[nH]c1=O)C(O)c1ccc([N+](=O)[O-])cc1` (centres undefined): the TGI is more than 100 µM with DLD-1 colon; 75 µM in the experiment with DMS 114 small cell lung; more than 100 µM with KM20L2 colon; more than 100 µM in the experiment with LXFL 529 NSCLC; more than 100 µM in the experiment on XF 498 CNS.
In the case of `NP(=O)(Oc1c2occc2cc2ccc(=O)oc12)N(CCCl)CCCl` (centres undefined), the TGI in the experiment on DU-145 prostate, in the experiment with HS 578T breast, with MDA-MB-231 breast and in the experiment on NCI/ADR-RES ovarian was more than 100 µM each time.
For `CC(=O)CSCc1ccccn1`, the TGI in the experiment on DU-145 prostate is more than 100 µM; in the experiment on HS 578T breast it was 7.23 µM; in the experiment on MDA-MB-231 breast, more than 100 µM; in the experiment on NCI/ADR-RES ovarian, more than 100 µM.
As to `N#C/C(=C1C=C(Br)/C(=N\O)C=C\1Cl)c1cccc2ccccc12`, the TGI in the experiment with DU-145 prostate is 12.6 µM; in the experiment with HS 578T breast, 17.5 µM; in the experiment with MDA-MB-231 breast it was 16.3 µM; in the experiment on NCI/ADR-RES ovarian, more than 100 µM.
Turning to `COc1cc2ncnc(Nc3ccc(C)c(O)c3)c2cc1OC`, the GI50 is 7.91 µM in the experiment on DU-145 prostate, 5.36 µM with HS 578T breast, 17.1 µM in the experiment on MDA-MB-231 breast and 16.4 µM with NCI/ADR-RES ovarian. Also, the TGI in the experiment on DU-145 prostate was more than 25 µM; in the experiment with HS 578T breast, 18.8 µM; in the experiment on MDA-MB-231 breast, more than 25 µM; in the experiment with NCI/ADR-RES ovarian, more than 25 µM.
`Cc1cccc(N2CCN(C(=S)c3ccc4c(c3)OCO4)CC2)c1`: the GI50 was 2.34 µM with DU-145 prostate, 0.501 µM in the experiment with HS 578T breast, 0.861 µM in the experiment with MDA-MB-231 breast and 0.338 µM in the experiment with NCI/ADR-RES ovarian. The concentration for total growth inhibition (TGI) was more than 100 µM with DU-145 prostate, 5.58 µM in the experiment with HS 578T breast, more than 100 µM in the experiment with MDA-MB-231 breast and more than 100 µM with NCI/ADR-RES ovarian.
Take `CCCCC(O)(c1ccc(Cl)cc1)C(CN1CCOCC1)c1ccc(Cl)cc1` (centres undefined): the GI50 was 15.7 µM with DU-145 prostate, 16.8 µM with HS 578T breast, 12.7 µM in the experiment on MDA-MB-231 breast and 12 µM with NCI/ADR-RES ovarian. Further, the total growth inhibition concentration (TGI) in the experiment with DU-145 prostate came to 29.8 µM; with HS 578T breast, 46.5 µM; in the experiment with MDA-MB-231 breast, 27.7 µM; in the experiment on NCI/ADR-RES ovarian, 32.2 µM.

What is called TGI is the concentration giving total growth inhibition. Lower therefore signals more potent growth arrest. As a reminder, the GI50 is the concentration that inhibits growth by half.
